This passage reports Activity and bioavailability results from ChEMBL document CHEMBL3856191, “Structural modifications at the 6-position of thieno[2,3-d]pyrimidines and their effects on potency at FLT3 for treatment of acute myeloid leukemia” (Eur J Med Chem, 2016).

Data set [1] concerns the target Vascular endothelial growth factor receptor 3 (Homo sapiens) (UniProt P35916). In words: Inhibition of recombinant human FLT4 expressed in insect cells assessed as remaining activity at 10 uM preincubated for 15 mins followed by poly(Glu:Tyr) substrate addition for 30 mins in presence of [gamma-32P]ATP by […] assay. On the technique in general: In TR-FRET formats the signal depends on donor and acceptor labels being close together.

In a further data set the target is Angiopoietin-1 receptor (Homo sapiens, UniProt Q02763). In words: Inhibition of human TIE2 assessed as remaining activity at 10 uM preincubated for 15 mins followed by substrate addition measured after 30 mins in presence of [gamma-32P]ATP by […] assay.
Chain of Angiopoietin-1 receptor (Q02763 whole entry): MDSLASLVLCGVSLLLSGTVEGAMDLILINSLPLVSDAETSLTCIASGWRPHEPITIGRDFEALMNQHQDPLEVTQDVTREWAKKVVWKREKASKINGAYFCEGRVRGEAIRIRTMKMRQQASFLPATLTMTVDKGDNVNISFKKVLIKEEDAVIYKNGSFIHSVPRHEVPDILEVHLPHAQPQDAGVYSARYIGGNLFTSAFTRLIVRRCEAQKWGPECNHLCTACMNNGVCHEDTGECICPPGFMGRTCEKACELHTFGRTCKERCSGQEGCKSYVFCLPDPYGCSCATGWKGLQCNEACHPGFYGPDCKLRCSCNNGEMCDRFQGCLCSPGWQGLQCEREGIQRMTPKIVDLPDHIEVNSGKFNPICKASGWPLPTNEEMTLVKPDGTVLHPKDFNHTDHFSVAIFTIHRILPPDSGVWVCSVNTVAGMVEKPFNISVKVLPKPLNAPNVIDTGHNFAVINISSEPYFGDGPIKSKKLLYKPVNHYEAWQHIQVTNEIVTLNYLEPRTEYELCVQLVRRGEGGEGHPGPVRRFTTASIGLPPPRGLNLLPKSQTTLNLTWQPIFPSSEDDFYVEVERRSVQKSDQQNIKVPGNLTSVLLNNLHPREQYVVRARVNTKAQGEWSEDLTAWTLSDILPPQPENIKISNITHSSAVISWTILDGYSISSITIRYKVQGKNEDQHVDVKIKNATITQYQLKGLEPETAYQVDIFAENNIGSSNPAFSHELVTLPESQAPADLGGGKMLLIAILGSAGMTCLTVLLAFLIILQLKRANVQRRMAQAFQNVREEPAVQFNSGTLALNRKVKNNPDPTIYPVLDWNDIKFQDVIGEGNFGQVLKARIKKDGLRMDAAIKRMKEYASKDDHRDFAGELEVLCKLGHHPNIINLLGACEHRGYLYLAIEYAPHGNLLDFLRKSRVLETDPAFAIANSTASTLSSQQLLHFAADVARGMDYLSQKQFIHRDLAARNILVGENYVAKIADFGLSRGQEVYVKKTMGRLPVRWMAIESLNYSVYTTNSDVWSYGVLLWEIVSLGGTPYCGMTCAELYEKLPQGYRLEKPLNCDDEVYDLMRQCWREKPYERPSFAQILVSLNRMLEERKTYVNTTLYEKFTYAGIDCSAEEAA
Data set [2] addresses Dual specificity mitogen-activated protein kinase kinase 1 (Homo sapiens) (UniProt Q02750). Description: Inhibition of recombinant human MEK1 expressed in Escherichia coli assessed as remaining activity at 10 uM preincubated for 15 mins followed by myelin basic protein substrate addition for 30 mins in presence of [gamma-32P]ATP by […] assay.
For data set [3], the target named is Tyrosine-protein kinase Fes/Fps (Homo sapiens) (UniProt P07332). Description: Inhibition of recombinant human FES expressed in insect Sf21 cells assessed as remaining activity at 10 uM preincubated for 15 mins followed by poly(Glu:Tyr) substrate addition for 30 mins in presence of [gamma-32P]ATP by […] assay.
Chain of Tyrosine-protein kinase Fes/Fps (Homo sapiens) (P07332 whole entry): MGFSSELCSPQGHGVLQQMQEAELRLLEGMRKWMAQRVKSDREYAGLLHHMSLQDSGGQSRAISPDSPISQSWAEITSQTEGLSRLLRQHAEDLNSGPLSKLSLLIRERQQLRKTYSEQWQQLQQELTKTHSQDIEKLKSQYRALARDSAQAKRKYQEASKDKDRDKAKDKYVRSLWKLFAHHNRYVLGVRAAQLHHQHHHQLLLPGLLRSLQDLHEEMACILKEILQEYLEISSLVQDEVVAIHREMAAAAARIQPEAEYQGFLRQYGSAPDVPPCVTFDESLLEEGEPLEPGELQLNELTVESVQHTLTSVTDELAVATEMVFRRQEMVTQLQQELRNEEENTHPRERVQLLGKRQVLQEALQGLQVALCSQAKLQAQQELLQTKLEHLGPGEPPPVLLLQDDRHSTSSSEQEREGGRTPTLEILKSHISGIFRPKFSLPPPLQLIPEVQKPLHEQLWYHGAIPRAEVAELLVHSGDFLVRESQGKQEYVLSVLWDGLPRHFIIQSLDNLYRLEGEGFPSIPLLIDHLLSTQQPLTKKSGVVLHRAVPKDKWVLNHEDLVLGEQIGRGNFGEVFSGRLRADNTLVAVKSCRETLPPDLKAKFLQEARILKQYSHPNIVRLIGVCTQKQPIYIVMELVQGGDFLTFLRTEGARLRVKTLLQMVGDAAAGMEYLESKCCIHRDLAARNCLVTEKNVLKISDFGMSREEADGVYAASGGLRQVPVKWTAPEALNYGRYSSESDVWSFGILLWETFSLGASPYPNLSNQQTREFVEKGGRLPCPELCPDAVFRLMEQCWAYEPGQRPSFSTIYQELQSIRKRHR
Data set [4] addresses Tyrosine-protein kinase ABL1 (Homo sapiens, UniProt P00519). Description: Inhibition of recombinant human ABL1 expressed in insect cells assessed as remaining activity at 10 uM preincubated for 15 mins followed by poly(Glu:Tyr) substrate addition for 30 mins in presence of [gamma-32P]ATP by […] assay.
Data set [5] is described as follows: Oral bioavailability in Sprague-Dawley rat at 30 mg/kg up to 24 hrs by LC/MS/MS analysis. The data set is classed as ADME, organism-based. To be noted: in vivo.
In data set [6] the target is Platelet-derived growth factor receptor alpha (Homo sapiens) (UniProt P16234). In words: Inhibition of recombinant human PDGFR-alpha expressed in insect Sf21 cells assessed as remaining activity at 10 uM preincubated for 15 mins followed by poly(Glu:Tyr) substrate addition for 30 mins in presence of [gamma-32P]ATP by […] assay.
Chain of Platelet-derived growth factor receptor alpha (Homo sapiens) (P16234 whole entry): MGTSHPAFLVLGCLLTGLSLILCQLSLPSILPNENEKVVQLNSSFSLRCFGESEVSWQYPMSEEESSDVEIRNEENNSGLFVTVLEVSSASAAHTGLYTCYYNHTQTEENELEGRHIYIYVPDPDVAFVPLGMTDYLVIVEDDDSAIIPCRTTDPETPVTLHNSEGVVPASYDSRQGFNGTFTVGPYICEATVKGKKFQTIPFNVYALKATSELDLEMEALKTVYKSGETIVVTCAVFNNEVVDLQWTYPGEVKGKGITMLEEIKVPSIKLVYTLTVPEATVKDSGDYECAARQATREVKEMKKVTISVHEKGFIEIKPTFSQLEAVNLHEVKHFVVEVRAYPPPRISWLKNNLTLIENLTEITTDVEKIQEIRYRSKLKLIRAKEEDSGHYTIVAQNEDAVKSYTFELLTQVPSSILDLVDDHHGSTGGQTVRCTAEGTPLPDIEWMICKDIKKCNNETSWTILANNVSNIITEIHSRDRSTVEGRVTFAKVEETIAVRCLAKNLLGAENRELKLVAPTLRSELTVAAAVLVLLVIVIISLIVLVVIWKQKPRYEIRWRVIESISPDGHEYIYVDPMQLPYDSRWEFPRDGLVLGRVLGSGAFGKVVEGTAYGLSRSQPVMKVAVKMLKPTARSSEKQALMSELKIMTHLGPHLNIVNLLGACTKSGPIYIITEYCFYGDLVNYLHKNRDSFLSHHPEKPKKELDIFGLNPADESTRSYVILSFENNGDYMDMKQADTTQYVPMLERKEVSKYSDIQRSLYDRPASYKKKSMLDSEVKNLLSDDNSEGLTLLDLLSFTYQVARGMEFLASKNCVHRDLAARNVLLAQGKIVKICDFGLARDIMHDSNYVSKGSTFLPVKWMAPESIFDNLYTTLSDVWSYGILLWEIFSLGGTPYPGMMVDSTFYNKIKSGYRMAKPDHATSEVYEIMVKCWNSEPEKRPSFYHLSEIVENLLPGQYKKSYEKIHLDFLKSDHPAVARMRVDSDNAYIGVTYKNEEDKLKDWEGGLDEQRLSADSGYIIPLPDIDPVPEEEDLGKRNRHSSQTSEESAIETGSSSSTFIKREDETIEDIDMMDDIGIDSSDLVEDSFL
The target of data set [7] is Mitogen-activated protein kinase 1 (Homo sapiens) (UniProt P28482). In words: Inhibition of recombinant human MAPK1 expressed in Escherichia coli assessed as remaining activity at 10 uM preincubated for 15 mins followed by myelin basic protein substrate addition for 30 mins in presence of [gamma-32P]ATP by […] assay.
Chain of Mitogen-activated protein kinase 1 (Homo sapiens) (P28482 whole entry): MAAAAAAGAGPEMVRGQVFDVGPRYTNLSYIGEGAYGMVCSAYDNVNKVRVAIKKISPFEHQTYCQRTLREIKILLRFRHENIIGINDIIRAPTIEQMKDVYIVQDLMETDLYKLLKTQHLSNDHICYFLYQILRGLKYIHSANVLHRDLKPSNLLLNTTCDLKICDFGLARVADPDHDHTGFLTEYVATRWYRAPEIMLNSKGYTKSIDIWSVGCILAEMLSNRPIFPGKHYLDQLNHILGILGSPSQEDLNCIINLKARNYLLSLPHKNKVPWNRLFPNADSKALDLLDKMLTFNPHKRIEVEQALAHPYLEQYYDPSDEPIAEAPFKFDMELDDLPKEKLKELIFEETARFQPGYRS
Data set [8] addresses PI3-kinase p110-delta/p85-alpha (Homo sapiens) (UniProt P27986+O00329). In words: Inhibition of PI3K p110delta/p85alpha (unknown origin) assessed as remaining activity at 10 uM in presence of [gamma-32P]ATP by […] assay. The class given is protein-complex assay.

The bioavailability is the share of a dose that reaches the circulation, judged against a reference dose that is usually intravenous. Higher therefore signals much systemic uptake.

Structures are written as SMILES.

Chain of Tyrosine-protein kinase ABL1 (P00519 whole entry): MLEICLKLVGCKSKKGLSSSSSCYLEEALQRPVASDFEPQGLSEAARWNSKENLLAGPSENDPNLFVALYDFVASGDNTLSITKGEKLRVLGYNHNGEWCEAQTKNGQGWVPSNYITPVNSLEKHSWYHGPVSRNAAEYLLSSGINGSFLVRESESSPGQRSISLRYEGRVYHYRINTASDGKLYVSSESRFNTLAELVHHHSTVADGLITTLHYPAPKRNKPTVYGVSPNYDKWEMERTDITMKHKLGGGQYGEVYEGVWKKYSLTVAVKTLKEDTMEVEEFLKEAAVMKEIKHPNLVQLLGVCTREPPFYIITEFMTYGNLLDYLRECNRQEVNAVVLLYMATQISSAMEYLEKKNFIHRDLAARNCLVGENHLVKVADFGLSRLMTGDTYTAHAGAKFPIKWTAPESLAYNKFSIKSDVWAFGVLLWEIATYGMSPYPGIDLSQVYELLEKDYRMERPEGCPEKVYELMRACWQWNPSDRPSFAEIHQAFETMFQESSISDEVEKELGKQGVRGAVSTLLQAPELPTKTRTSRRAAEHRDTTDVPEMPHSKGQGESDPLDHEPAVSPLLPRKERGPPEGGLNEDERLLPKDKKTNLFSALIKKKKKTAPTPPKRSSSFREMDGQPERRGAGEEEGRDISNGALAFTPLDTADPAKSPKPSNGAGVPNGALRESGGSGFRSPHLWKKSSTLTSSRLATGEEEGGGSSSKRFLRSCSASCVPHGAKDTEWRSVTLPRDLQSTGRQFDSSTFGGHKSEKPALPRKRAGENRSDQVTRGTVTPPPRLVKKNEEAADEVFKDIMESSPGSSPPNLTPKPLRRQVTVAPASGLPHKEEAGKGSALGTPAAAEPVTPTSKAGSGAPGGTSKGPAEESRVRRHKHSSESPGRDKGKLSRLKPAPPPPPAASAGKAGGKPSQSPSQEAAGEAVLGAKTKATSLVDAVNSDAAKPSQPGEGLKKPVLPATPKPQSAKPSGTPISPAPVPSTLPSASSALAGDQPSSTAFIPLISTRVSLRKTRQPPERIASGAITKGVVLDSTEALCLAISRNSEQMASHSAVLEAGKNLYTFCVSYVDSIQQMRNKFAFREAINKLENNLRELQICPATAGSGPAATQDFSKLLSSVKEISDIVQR
Chain of Dual specificity mitogen-activated protein kinase kinase 1 (Homo sapiens) (Q02750 whole entry): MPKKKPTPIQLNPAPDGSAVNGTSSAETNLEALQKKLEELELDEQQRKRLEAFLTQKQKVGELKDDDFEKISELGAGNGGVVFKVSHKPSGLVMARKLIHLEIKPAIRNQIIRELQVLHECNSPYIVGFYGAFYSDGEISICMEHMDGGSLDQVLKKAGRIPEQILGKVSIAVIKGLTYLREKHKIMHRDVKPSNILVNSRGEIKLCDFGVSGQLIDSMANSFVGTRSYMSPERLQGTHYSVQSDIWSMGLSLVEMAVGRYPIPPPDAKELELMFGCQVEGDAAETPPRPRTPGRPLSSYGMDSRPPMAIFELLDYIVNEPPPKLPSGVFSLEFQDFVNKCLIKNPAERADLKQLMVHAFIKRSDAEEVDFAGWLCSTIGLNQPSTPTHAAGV

In the case of `CNCCOc1ccc(-c2sc3nc(-c4cccs4)nc(NN4C(=O)C=C(C)C4=O)c3c2C)cc1.Cl`, the Activity in data set [1] came to 24%; on Angiopoietin-1 receptor it was 16%; in [2], 103%; in data set [3], 78%; in [4], 11%; in data set [6] it was 115%. Further, the Activity in [7] came to 114%; in data set [8] it was 37%. In data set [5], this compound came in with a bioavailability of 17%.
